Results from US9289490B2, “Combinations and uses thereof” (MORPHOSYS AG, priority 2010, dated 2016).
“And” between values parts separate entries of the source, which are not always exact repeats. Equal entries are not always repeated.

What was measured:
[1] = tested on: Plasmacytoma, Malignant Plasma Cells; experiment: CD38 surface expression after lenalidomide (FACS, ABC); type: cell-based, human
Experimental: Bone marrow samples (4-10 ml aspirate) from multiple myeloma patients and extramedullary tumor plasmacytoma samples were obtained after informed consent from the Klinikum rechts der Isar (“KrdI”) (Munich, Germany). Samples were subjected to centrifugation, and further plasma cell enrichment was achieved via magnetic-activated cell sorting.
(§1) Cells were stained with a directly labelled QuantiBRITE™ CD38-PE antibody (Becton Dickinson GmbH, Clone HB7, CAT #342371), which is specific for CD38. The “Antibodies Bound Per Cell” (ABC's) were determined using the flow cytometry based QuantiBRITE™ system, which measures the geometric mean (GeoMean) per cell. Conversion of measured GeoMean into correlating ABC amount per cell was done with GraphPad PRISM™ software. The ABC values are assumed to correlate with the number of CD38 molecules per cell, since QuantiBRITE™ CD38-PE carries one PE molecule per antibody.
(§2) To determine whether lenalidomide induced upregulation of CD38 in the multiple myeloma and plasmacytoma cells of Table 1, the cell lines were incubated with 100 μM lenalidomide and, subsequently, CD38 surface expression was analyzed by FACS.
(§3) Around 2×10^5 cells of each of the cells lines of Table 1 were plated on 48-well dishes in standard RPMI medium. Lenalidomide, purchased from Selleck Chemicals (LLC S1029, CAS No. 191732-6; Batch: S10290), was applied to respective wells to a final concentration of 100 μM in a volume of 750 μl containing 20% FCS and 0.1% DMSO.
Cells were resuspended by gentle pipetting and 250 μl of cell suspension per incubation period were transferred into a well of a 96-well round bottom plate. Cells were washed by centrifugation for 1 min at 700×g and were resuspended in 150 μl of cold FACS buffer (1×PBS supplemented with 3% FCS). Cells were again pelleted down by centrifugation and were resuspended in 150 μl of FACS buffer containing 15 μg/ml of anti-CD38 antibody (MOR202, IgG1) or control antibody MOR03207 and incubated for 1 h on ice. […]

[2] = tested on: NCI-H929 human multiple myeloma cells; experiment: NCI-H929 bone lysis SCID mouse MM model, MOR202 and LEN (MicroCT); type: in vivo, SCID mice
Experimental: 63 SCID mice were inoculated on Day (−7) orthotopically into the right tibia with 2.5×10^6 NCI-H929 MM cells (in 5 μL) in order to induce bone lysis. Lenalidomide (Groups A and D) and Vehicle Control (Group C) treatments started on Day (−1). MOR202 treatments (Groups B and D) started on Day 0. Treatment continued for 6 weeks.
MicroCT Scan was used to assess bone lysis and included […] analysis comprising Total Bone Volume (TBV), Trabecular Bone Volume (Tb.BV), Trabecular Pattern Factor (Tb.Pf) and Structure Model Index (SMI). Table 10 defines each of these parameters.

AMO-1 cells [3] = experiment: Cell proliferation, XTT-based assay; design: species or system human
Experimental: (§6) Cells were collected and distributed in 96-well plates with 5000 cells per well.
(§7) After incubation, plates were analyzed for cell proliferation in a quantitative colorimietric XTT-based assay using the cell proliferation kit II (ROCHE, Cell Proliferation Kit II, Cat. No.: 11465015001). For subsequent measurement plates were subjected to Tecan Genios Reader and absorbance at 492 nm was detected.
(§8) Increasing amounts of Bortezomib (Velcade®, Lot: No.: #9AZSY00) were applied to AMO-1, LP-1, NCI-H929 and RPMI-8226 cells and incubated for 24 h, 48 h and 72 h. After incubation, period plates were analyzed for cell proliferation in a quantitative colorimietric XTT-based assay using the cell proliferation kit II (ROCHE, Cell Proliferation Kit II, Cat. No.: 11465015001). For subsequent measurement, plates were subjected to Tecan Genios Reader and absorbance at 492 nm was detected.

AMO-1 cells [4] = experiment: ADCC with human PBMCs, flow cytometry (CalceinAM/PI); type: cell-based
Experimental: For Tables 3b-c, “Theoretical Combination” represents the addition of the values of MOR202 alone and the values of LEN alone. The normalized data of Table 3b is calculated as follows. Therefore, the specific killing values of Table 3b are calculated by subtracting the values of the controls. Then the specific killing values are compared to the MOR202 group, which is set as 1.
The constant m determines the shape of the dose-effect curve. We used Excel Fit software to carry out a linear regression calculation to estimate the parameters m and D50.
The CI-isobol method provides a quantitative assessment of synergism between drugs. A combination index (CI) is estimated from dose-effect data of single and combined drug treatments. […] Formally, the combination index (CI) of a combined drug treatment is defined as CI=D1/Dx1+D2/Dx2
The data is analysed in the following way: Antagonistic(AB)/C<(A/C)×(B/C) Additive(AB)/C=(A/C)×(B/C) Synergistic(AB)/C>(A/C)×(B/C) where A is the treatment with LEN alone; B is the treatment with MOR202 alone; C is response to the treatment vehicle; AB is combination of treatments A and B.

NCI-H929 cells [5] = experiment: Cell proliferation, XTT-based assay; conditions: NCI-H929 cells
Experimental: as §6, §7, §8

RPMI-8226 cells = experiment: CD38 surface expression after lenalidomide (FACS, ABC); type: cell-based, human
Experimental: as §1, §2, §3
(§4) Cells were resuspended by gentle pipetting and 250 μl of cell suspension per incubation period were transferred into a well of a 96-well round bottom plate. Cells were washed by centrifugation for 1 min at 700×g and were resuspended in 150 μl of cold FACS buffer (1×PBS supplemented with 3% FCS). Cells were again pelleted down by centrifugation and were resuspended in 150 μl of FACS buffer containing 15 μg/ml of anti-CD38 antibody (MOR202, IgG1) or control antibody MOR03207 and incubated for 1 h on ice. Cells were then washed 3 times by centrifugation and were resuspended in FACS buffer supplemented with PE-labeled secondary antibody (PE-Fab2 fragment, goat anti-human IgG. Fc-fragment specific; Jackson Immuno Research; CAT: 109-116-098; Lot: 80938). Cells were incubated for 45 minutes on ice, then washed 3 times by centrifugation and resuspended in FACS buffer. The cell suspensions were then subjected to FACS analysis using a FACS array device.
(§5) Additionally, the affect of lenalidomide on the CD38 expression of AMO-1 cells is shown in FIG. 1, and the affect of lenalidomide on the CD38 expression of NCI-H929 cells is shown in FIG. 5.

OPM-2 cells = experiment: as above; type: cell-based, human
Experimental: as §1, §2, §3, §4, §5

LP-1 cells = experiment: as above; type: cell-based, human
Experimental: as §1, §2, §3, §4, §5

NCI-H929 cells [6] = experiment: as above; type: cell-based, human
Experimental: as §1, §2, §3, §4, §5

AMO-1 cells [7] = experiment: as above; type: cell-based, human
Experimental: as §1, §2, §3, §4, §5

[8] = LEN 50 mg/kg p.o. once daily, MOR202 3 mg/kg i.p. 3 times weekly, 6 weeks, lower = less bone lysis
[9] = group mean of 10 mice, LEN 50 mg/kg p.o., MOR202 3 mg/kg i.p., 6 weeks

SMILES: Nc1cccc2c1CN(C1CCC(=O)NC1=O)C2=O (stereo not shown) [LEN, lenalidomide]
- Absolute number of ABC (CD38 expression) LEN (extrapolated) ([1]; 100 μM lenalidomide): 69,000 ABC
- Absolute number of ABC (CD38 expression) INCREASE ([1]; 100 μM lenalidomide vs basal): 39,000 ABC
- Fold increase (CD38 expression) ([1]; 100 μM lenalidomide vs basal): 2.3 fold
- Structure Model Index (SMI), individual mouse [2, 8]: 2.679 and 2.667 and 2.335 and 2.560 and 2.086 and 2.619 and 2.562 and 2.592 and 2.547 and 3.125
- Trabecular Pattern Factor (Tb · Pf), individual mouse [2, 8]: 24.329 mm^−1 and 23.561 mm^−1 and 22.893 mm^−1 and 28.280 mm^−1 and 22.213 mm^−1 and 30.739 mm^−1 and 24.016 mm^−1 and 29.454 mm^−1 and 24.205 mm^−1 and 38.360 mm^−1
- Structure Model Index (SMI), Mean [2, 9]: 2.577
- Trabecular Pattern Factor (Tb · Pf), Mean [2, 9]: 26.805 mm^−1
- Reduction of bone lysis compared to vehicle control ([2]; non-inoculated tibia = 0%, vehicle = 100% bone lysis, MOR202 alone 12 mg/kg, LEN alone 50 mg/kg, combination 3 mg/kg MOR202 and 50 mg/kg LEN): 20%
- Cytotoxicity of lenalidomide alone (in words) (AMO-1 cells [3]): low cytotoxity against AMO-1 cells
- Cell killing by lenalidomide alone (in words) (AMO-1 cells [4]; AMO-1 cells): no effect on AMO-1 cells regarding cell killing
- Enhancement of MOR202 ADCC activity by LEN (in words) (AMO-1 cells [4]; AMO-1 cells, Clarke et al. all 6 experiments, Chou et al. 6 out of 6): synergistically enhanced MOR202 ADCC activity
- Normalized specific killing, theoretical combination set as 1, AVERAGE (Table 3c) (AMO-1 cells [4]; PBMCs and AMO-1 cells treated with LEN, MOR202 0.42 μg/ml, LEN 5 μM, average of 3 experiments): 0.2
- % dead cells (raw data, Table 4a) (AMO-1 cells [4]; only PBMCs (effector cells) treated with LEN before MOR202, LEN 10 μM, MOR202 and MOR03207 15 μg/ml, Exp. 1-3): 17.93 % dead cells and 15.33 % dead cells and 12.98 % dead cells
- Normalized specific killing, theoretical combination set as 1, AVERAGE (Table 4c) (AMO-1 cells [4]; only effector cells treated with LEN, MOR202 0.42 μg/ml, LEN 5 μM, average of 3 experiments): 0.1
- Inhibition of cell proliferation by lenalidomide alone (in words) (NCI-H929 cells [5]): significant effect on the proliferation of NCI-H929 cells
- Inhibition of cell proliferation by lenalidomide alone (in words) (NCI-H929 cells [5]; listed as Lenalidomide): signficantly inhibited cell proliferation
- Absolute number of ABC (CD38 expression) LEN (extrapolated) (RPMI-8226 cells; 100 μM lenalidomide): 871,000 ABC
- Effect (on CD38 expression) (RPMI-8226 cells; 100 μM lenalidomide): Weak
- Absolute number of ABC (CD38 expression) INCREASE (RPMI-8226 cells; 100 μM lenalidomide vs basal): 199,000 ABC
- Fold increase (CD38 expression) (RPMI-8226 cells; 100 μM lenalidomide vs basal): 1.3 fold
- Absolute number of ABC (CD38 expression) LEN (extrapolated) (OPM-2 cells; 100 μM lenalidomide): 98,800 ABC
- Absolute number of ABC (CD38 expression) INCREASE (OPM-2 cells; 100 μM lenalidomide vs basal): 60,800 ABC
- Fold increase (CD38 expression) (OPM-2 cells; 100 μM lenalidomide vs basal): 2.6 fold
- Absolute number of ABC (CD38 expression) LEN (extrapolated) (LP-1 cells; 100 μM lenalidomide): 162,500 ABC
- Effect (on CD38 expression) (LP-1 cells; 100 μM lenalidomide): No
- Absolute number of ABC (CD38 expression) INCREASE (LP-1 cells; 100 μM lenalidomide vs basal): 37,500 ABC
- Fold increase (CD38 expression) (LP-1 cells; 100 μM lenalidomide vs basal): 1.3 fold
- Absolute number of ABC (CD38 expression) LEN (extrapolated) (NCI-H929 cells [6]; 100 μM lenalidomide): 390,000 ABC
- Effect (on CD38 expression) (NCI-H929 cells [6]; 100 μM lenalidomide): Weak
- Absolute number of ABC (CD38 expression) INCREASE (NCI-H929 cells [6]; 100 μM lenalidomide vs basal): 195,000 ABC
- Fold increase (CD38 expression) (NCI-H929 cells [6]; 100 μM lenalidomide vs basal): 2.0 fold
- Absolute number of ABC (CD38 expression) LEN (extrapolated) (AMO-1 cells [7]; 100 μM lenalidomide): 115,000 ABC
- Absolute number of ABC (CD38 expression) INCREASE (AMO-1 cells [7]; 100 μM lenalidomide vs basal): 90,000 ABC
- Fold increase (CD38 expression) (AMO-1 cells [7]; 100 μM lenalidomide vs basal): 4.5 fold
